How the values were obtained:
[1] = test system: PPI-disruptive effects of PCP in Sprague-Dawley-derived male rats; assay: Pre-Pulse Inhibition Model (PCP-disrupted PPI); assay type: in vivo
Text: Pre-Pulse Inhibition Model
The restorative effect of an enantiomer of Formula (Ib) on Pre-Pulse Inhibition (PPI) was compared to the disruptive PPI effect of phencyclidine (PCP). PCP is a NMDA antagonist having a wide range of psychotominetic effects in humans. The PPI disruption caused by PCP can be restored by some atypical antipsychotics, such as clozapine, olanzapine, and quetiapine.
Sprague-Dawley-derived male rats were housed in groups of two or three and maintained in a temperature-controlled environment on a 12 h:12 h light cycle. Except during behavioral testing, animals were given free access to food and water. Animals were handled daily for several days to desensitize them to handling stress before behavioral analysis.
An SR-LAB Startle System was used to control auditory stimuli and background noise level and to monitor startle response (±one msec). The average amplitude of the response was the main dependent variable used. Animals (n=20) were grouped according to a baseline mean PPI determined in a brief matching session. Baseline mean PPI testing consisted of 12 noise bursts at 118 dB[A] over a 40 msec time period followed by 3 noise bursts at 12 dB[A] over a 40 msec time period two days before testing with drug. […]
Data were collected online simultaneously from multiple startle chambers and analyzed using the Statview 5.0 statistical package.

[2] = test system: DOI-induced headshakes in male NIH Swiss mice; assay: DOI-Induced Headshake Model; assay type: in vivo; conditions: for % Inhibition (% Inh.) of DOI-induced headshakes: 45 min before DOI 5 mg/kg ip, percent suppression compared to vehicle group; for maximal suppression of DOI-induced headshakes: at the 100 mg/kg dose, oral, DOI 5 mg/kg ip
Description: DOI-Induced Headshake Model
The administration of DOI to rodents has been used as a model for assessing potential efficacy of an atypical antipsychotic in treating psychosis and schizophrenia in certain patient populations with direct or indirect defects in the serotonin system.
Male NIH Swiss mice weighing 18-21 grams at the time of purchase were obtained from Harlan Sprague Dawley, Inc. (Prattville, Ala.). They were individually housed in wire-mesh cages at an ambient temperature of 21 to 23° C. with an automated 12/12 hour light/dark cycle. All […] had free access to 5001 Rodent Chow (Purina Mills, Brentwood, Mo.) and water except during experimental sessions. The principles of laboratory animal care (NIH publication No. 85-23, revised 1985) were followed.
DOI (purchased from Sigma, St. Louis, Mo.) was dissolved in saline, neutralized to pH ˜7.4 and injected ip in a volume of 10 ml/kg body weight. Injection solution was freshly prepared 30-45 minutes before each experiment. Methylcellulose (0.5%, Sigma) was used as oral dosing vehicle. All experiments were performed between 10 am and 4 pm during the day. The mice were fasted the evening before the experiment.
An enantiomer of Formula (Ib), Formula (IIb) or vehicle was orally administered at various concentrations ranging from 10 μg to 100 mg/kg. The animals were then injected with either saline or DOI (ip, 5 mg/kg) 45 minutes after the administration of either vehicle or an enantiomer of Formula (Ib) or Formula (IIb). Immediately upon DOI administration, the mice were placed in isolated observation cylinders made of a clear polycarbonate (27 cm in diameter and 55 cm deep). The number of randomized headshakes (or twitches) was recorded by an experienced observer using a hand held mechanical counter. Headshake responses were counted in consecutive 10-min periods.
DOI-Induced Headshake Model Analysis
All data are expressed as the mean ±SEM. The average of the headshakes in the vehicle group was expressed as 100%. The DOI-induced headshakes in groups treated with an enantiomer of Formula (Ib) and Formula (IIb) were expressed as percent suppression compared to the vehicle group. Statistical analysis for significant differences was done with the Student t test.

SMILES | dose-dependent reduction in startle magnitude ([1]; 5, 15 and 45 mg/kg p.o.) | block of the PPI-disruptive effects of PCP ([1]; acute treatment 5, 15 and 45 mg/kg p.o., 110 min before PCP 1.5 mg/kg s.c.) | % Inhibition (% Inh.) of DOI-induced headshakes ([2]; 0.01 mg/Kg oral) | % Inhibition (% Inh.) of DOI-induced headshakes ([2]; 0.1 mg/Kg oral) | % Inhibition (% Inh.) of DOI-induced headshakes ([2]; 1 mg/Kg oral) | % Inhibition (% Inh.) of DOI-induced headshakes ([2]; 10 mg/Kg oral) | % Inhibition (% Inh.) of DOI-induced headshakes ([2]; 30 mg/Kg oral) | % Inhibition (% Inh.) of DOI-induced headshakes ([2]; 100 mg/Kg oral) | maximal suppression of DOI-induced headshakes [2]
NC(=O)OC[C@@H](O)c1ccccc1Cl [Formula (Ib)] | lacked an orderly dose-dependent reduction in startle magnitude | failed to significantly block the PPI-disruptive effects of PCP | 11% | 20% | 41% | 63% | 58% | 76% | 76%
NC(=O)OC[C@H](OC(N)=O)c1ccccc1Cl [Formula (IIb)] | – | – | 1% | 11% | 4% | 41% | 36% | 43% | 43%

— patent US6541513B2, “Carbamate compounds for use in preventing or treating psychotic disorders” (Ortho-McNeil Pharmaceutical, Inc., priority 2001, dated 2003)
